Measured values: patent US20100249018A1, “COMPOSITION AND METHOD FOR PREVENTING AND TREATING IMMUNE-RELATED DISORDER” (priority 2007, published 2010)
Square brackets hold non-standard residues; d marks the D form. Ends that are not written are not given here. * marks the point of attachment. Boc = CC(C)(C)OC(=O)*; For = O=C*

Assays:
CLP mice = assay: Survival in CLP (cecal ligation and puncture) sepsis mouse model; format: in vivo; details: for therapeutic effect of FPR ligands and scrambled peptide / therapeutic effect of WKYMVm analogs on experimental sepsis: 4 mg/kg subcutaneous four times at 2, 14, 26, 38 h post-CLP; for therapeutic effect of FPR ligands and scrambled peptide: FIG. 1g; for reversal of the therapeutic effects of WKYMVm by antagonist pre-treatment: antagonist 4 mg/kg subcutaneous 2 h before CLP and 2 h before each WKYMVm (4 mg/kg) treatment, FIG. 1d; for therapeutic effect of WKYMVm analogs on experimental sepsis: ICR mice, survival up to 10 days, FIG. 1h
Experimental: Male WT ICR mice and IL-12R 2-, IFN-γ-deficient, and WT C57BL/6 mice (kindly donated from Y. C. Sung, POSTECH, Republic of Korea) were used for experimental sepsis model, as previously described (Yan, J. J., Nat. Med. 10:161-167, 2004). All experiments involving animals adhered to the guidelines and received the approval of the Institutional Review Committee for Animal Care and Use at Dong-A University. For CLP, mice were anesthetized with pentothal sodium (50 mg/kg, intraperitoneal) and a small abdominal midline incision was made to expose the cecum. The cecum was then ligated below the ileocecal valve, punctured twice through both surfaces (or once for the measurement of cytokine production) using a 22-gauge needle and the abdomen was closed. Sham CLP mice were subjected to the same procedure, but without ligation and puncture of the cecum. Survival was monitored once daily for 10 days.
To investigate whether WKYMVm has a therapeutic effect on experimental sepsis, CLP was performed on albino ICR (Institute of Cancer Research) mice, and their survival was monitored for up to 10 days. […] Various doses of WKYMVm were injected subcutaneously four times into CLP mice at 2, 14, 26, and 38 h post-CLP.
To examine the effect of WKYMVm treatment, mice were injected subcutaneously with various doses of the peptide or with PBS as a negative control beginning 2 h after CLP. […] Various doses of WKYMVm were injected subcutaneously four times into CLP mice at […] post-CLP.
CLP mice were given zero, one, two, three, four, or five injections of WKYMVm (4 mg/kg, subcutaneous).
To evaluate the roles of FPR1 and FPR2, an FPR1 antagonist [N-t-butoxycarbonyl-Phe-Leu-Phe-Leu-Phe (Boc-PLPLP) (SEQ ID NO:12)] (La, M., et al., FASEB J. 15:2247-2256) and an FPR2 antagonist [Trp-Arg-Trp-Trp-Trp-Trp; WRWWWW (WRW^4) (SEQ ID NO:13)] (Bae, Y. S et al., J. Immunol. 173:607-614.) were administered prior to WKYMVm treatment in CLP mice. […] Boc-PLPLP (4 mg/kg), WRW^4 (4 mg/kg), or Boc-PLPLP (4 mg/kg)+WRW^4 (4 mg/kg) was injected subcutaneously 2 h before CLP. After CLP, Boc-PLPLP (4 mg/kg) or WRW^4 (4 mg/kg) was injected subcutaneously four times at 12-h intervals 2 h before WKYMVm treatment (4 mg/kg, subcutaneous).
Statistical analysis. Survival data were analyzed using the log-rank test. All other data were evaluated using ANOVA. The Bonferroni test was used for post hoc comparisons and statistical significance was set a priori at P<0.05.
FPR-family agonists (WKYMVm (SEQ ID NO:1), WKYMVM(SEQ ID NO:14), fMLF(SEQ ID NO:15) and MMK-1 (SEQ ID NO:16)) or scrambled peptide (VWMYmK: SEQ ID NO: 17) (4 mg/kg, respectively) were injected subcutaneously four times to CLP mice at 2, 14, 26, and 38 h post-CLP.
To investigate whether the analogs of WKYMVm(SEQ ID NO:1), WRYMVm(SEQ ID NO: 2), WKWMVm(SEQ ID NO: 3), WKRMVm(SEQ ID NO: 4), WKFMVm(SEQ ID NO: 5), WHYMVm(SEQ ID NO: 6), WKYMYm(SEQ ID NO: 7), WKYMFm(SEQ ID NO: 8), WKYMWm(SEQ ID NO: 9), WKYMVV(SEQ ID NO: 10) and WKEMVm(SEQ ID NO: 11) have therapeutic effects on experimental sepsis, CLP was performed on albino ICR (Institute of Cancer Research) mice, and their survival was monitored for up to 10 days. […] 4 mg/kg of WKYMVm or each analog of WKYMVm was injected subcutaneously four times into CLP mice at 2, 14, 26, and 38 h post-CLP (FIG. 1h).
To investigate the role of Th1 cytokines (IL-12 and IFN-γ) on WKYMVm-induced survival effect after sepsis, the CLP model was applied to IL-12Rβ2- and IFN-γ-deficient mice (C57BL/6 background). […] WT C57BL/6 or IL-12Rβ2-deficient mice were subcutaneously injected with WKYMVm (4 mg/kg) or PBS four times to CLP mice 2, 14, 26, and 38 h post-CLP. In FIG. 5d, WT C57BL/6 or IFN-γ-deficient mice were subcutaneously injected with WKYMVm (4 mg/kg) or PBS four times to CLP mice 2, 14, 26, and 38 h post-CLP. Data are expressed as the mean±standard error. *P<0.05; **P<0.01 compared with vehicle (c, d). n=10-16 mice per group (c,d) […]

[1] = tested on: splenocytes of Th1 mouse model; assay: Splenocyte proliferation assay, Th1 mouse model (OVA+LPS); format: in vivo; details: OVA+LPS immunized mice; 72 h incubation with OVA; compared to sham-treated mice; FIG. 4e
Experimental: To generate the Th1 and Th2 mouse models (FIG. 4b), 6-week-old C57BL/6 WT mice were twice immunized intraperitoneally with 75 μg of OVA+10 μg of LPS or 2 mg of alum on days 0 and 7 and then challenged intraperitoneally with 50 μg of OVA on days 14, 15, and 16. Isolated splenocytes were subjected to a cell proliferation assay with and without OVA incubation. Briefly, splenocytes were harvested in RPMI 1640 media and incubated (2×10^5 cells/well) in 96-well flat-bottom plates at 37° C. for 96 h in medium alone or with 5, 50 or 500 μg OVA/ml. The example measured cellular thymidine incorporation following a 72 h culture period with 1 μCi [^3H]thymidine.
Because IL-2 promotes T-cell proliferation (Benczik, M., et al., Immunol. Invest. 33:109-142), the effect of FPR activation by WKYMVm on Th1 and Th2 cell proliferation was evaluated using inert antigens. WKYMVm (4 mg/kg) was injected subcutaneously four times into CLP mice 2, 14, 26, and 38 h post-CLP. Separate groups of animals were given sham, CLP+PBS, or CLP+WKYMVm treatment. Data are expressed as the mean±standard error (n=8). *P<0.05; **P<0.01 compared with CLP+PBS. […]
Protocol for the Th1 and Th2 mice (FIG. 4d) was described below. […] Data are expressed as the mean±standard error (n=5 for e, f), and * indicates P<0.05 compared to OVA+PBS group; ** indicates P<0.05 versus the other groups. […]

mouse neutrophils = assay: H2O2 generation in mouse neutrophils in vitro; format: cell-based; details: antagonist 10 μM prior to WKYMVm (100 nM); FIG. 3d
Experimental: Because the bactericidal effect of phagocytes is related with H2O2 production (Hampton, M. B., et al., Blood. 92:3007-3017), the effect of WKYMVm on H2O2 generation in mouse neutrophils was evaluated. […] Mouse neutrophils were stimulated with vehicle (PBS) or WKYMVm (1-1000 nM) for 15 min. Neutrophils isolated from sham, CLP−, or CLP+WKYMVm-treated mice were stimulated with 100 nM PMA for 1 h. Freshly isolated neutrophils from normal mice were stimulated with various concentrations of WKYMVm for 10 min in the presence of cytochalasin B (5 μM).
To investigate the role of FPR1 and FPR2, neutrophils were preincubated with Boc-PLPLP (10 μM), WRW^4 (10 μM), or vehicle (DMSO) for 30 minutes prior to adding WKYMVm (100 nM) for 10 min. H2O2 in the supernatant was measured using an H2O2 assay kit (Molecular Probes).
Boc-PLPLP (10 μM), WRW^4 (10 μM), or Boc-PLPLP (10 μM)+WRW^4 (10 μM) was added […] prior to the addition of WKYMVm (100 nM).

[2] = tested on: E. coli ingested by mouse neutrophils; assay: Neutrophil bactericidal activity in vitro; format: cell-based; details: antagonist 10 μM added 30 min prior to WKYMVm (100 nM); FIG. 3b
Experimental: To determine whether WKYMVm treatment increases bactericidal activity in vitro, mouse neutrophils were allowed to ingest E. coli for 1 h and were then stimulated with 0.1-1000 nM WKYMVm for 20 min. […] Adherent neutrophils were incubated with 10^6 opsonized E. coli for 1 h, and stimulated with vehicle (PBS) or WKYMVm (0.1, 1, 10, 100, and 1000 nM) for 1 h.
Because FPR1 and FPR2 are expressed in neutrophils (data not shown), this experiment investigated the roles of FPR1-1 and FPR2-mediated pathways in WKYMVm-induced bactericidal activity. […] Mouse neutrophils were isolated from peripheral blood using a Histopaque-1077 solution (Sigma) as described previously (Bae, Y. S., et al., J. Immunol. 171:6807-6813, 2003). Boc-PLPLP (10 μM), WRW^4 (10 μM), or Boc-PLPLP (10 μM)+WRW^4 (10 μM) was added 30 min prior to the addition of WKYMVm (100 nM). The number of viable bacteria in the neutrophils was then determined.
Neutrophil bactericidal activity was measured according to the method of Yan, J. J., et al., Nat. Med. 10:161-167, 2004. […] After washing away the unengulfed E. coli, the number of viable bacteria in the neutrophils was determined before and after incubation with several concentrations of WKYMVm or vehicle for 1 h. The percentage of bacteria killed was calculated as 100×(1−number of CFU after WKYMVm stimulation/number of CFU before WKYMVm stimulation). […]

Q: For “LESIFRSLLFRVM (MMK-1 peptide) [FPR-family agonist]”, which “therapeutic effect of FPR ligands and scrambled peptide” value (CLP mice) is on record?
A: The value was “lower than that of WKYMVm”.

Q: For “N-formyl-Met-Leu-Phe (For-Met-Leu-Phe) [fMLF, FPR-family agonist]”, which “therapeutic effect of FPR ligands and scrambled peptide” value (CLP mice) is on record?
A: The value was “lower than that of WKYMVm”.

Q: “N-t-butoxycarbonyl-Phe-Leu-Phe-Leu-Phe (Boc-FLFLF) [Boc-PLPLP, FPR1 antagonist]” was tested. Which “splenocyte proliferation, Th1 mouse model” value [1] did it give?
A: The value was “inhibited”.

Q: What about the “reversal of WKYMVm-induced H2O2 generation by antagonist pre-treatment” value (mouse neutrophils) of the same substance?
A: The value was “partly reversed”.

Q: What about the “WKYMVm-induced bactericidal activity after antagonist pre-treatment” value [2] of the same substance?
A: Its value is “significantly inhibited bactericidal activity”.

Q: And the “reversal of the therapeutic effects of WKYMVm by antagonist pre-treatment” value (CLP mice)?
A: Its value is “only partly reversed”.

Q: “Val-Trp-Met-Tyr-D-Met-Lys (VWMY[dM]K) [VWMYmK]” was tested. Which “therapeutic effect of FPR ligands and scrambled peptide” value (CLP mice) did it give?
A: Its value is “no therapeutic effect”.

Q: How did the “therapeutic effect of WKYMVm analogs on experimental sepsis” value (“therapeutic effect of WKYMVm analogs” for short) (CLP mice) turn out when WHYMVm: analog of WKYMVm (WHYMV[dM]) was run?
A: Its value is “no therapeutic effects”.

Q: WKEMVm: analog of WKYMVm (WKEMV[dM]) was tested. Which “therapeutic effect of WKYMVm analogs” value (CLP mice) did it give?
A: The value was “no therapeutic effects”.

Q: For WKFMVm: analog of WKYMVm (WKFMV[dM]), which “therapeutic effect of WKYMVm analogs” value (CLP mice) is on record?
A: The value was “no therapeutic effects”.

Q: Which “therapeutic effect of WKYMVm analogs” value (CLP mice) does the source give for WKRMVm: analog of WKYMVm (WKRMV[dM]) here?
A: The value was “no therapeutic effects”.

Q: Which “therapeutic effect of WKYMVm analogs” value (CLP mice) does the source give for WKWMVm: analog of WKYMVm (WKWMV[dM]) here?
A: The value was “no therapeutic effects”.

Q: With WKYMFm: analog of WKYMVm (WKYMF[dM]) as the substance, how does the “therapeutic effect of WKYMVm analogs” value (CLP mice) read?
A: The value was “no therapeutic effects”.

Q: WKYMVV: analog of WKYMVm (WKYMVV) was tested. Which “therapeutic effect of WKYMVm analogs” value (CLP mice) did it give?
A: Its value is “no therapeutic effects”.

Q: For WKYMWm: analog of WKYMVm (WKYMW[dM]), which “therapeutic effect of WKYMVm analogs” value (CLP mice) is on record?
A: Its value is “no therapeutic effects”.

Q: WKYMYm: analog of WKYMVm (WKYMY[dM]) was tested. Which “therapeutic effect of WKYMVm analogs” value (CLP mice) did it give?
A: The value was “no therapeutic effects”.

Q: How did the “splenocyte proliferation, Th1 mouse model” value [1] turn out when WRWWWW [WRW^4] was run?
A: Its value is “inhibited”.

Q: What about the “reversal of WKYMVm-induced H2O2 generation by antagonist pre-treatment” value (mouse neutrophils) of the same substance?
A: Its value is “partly reversed”.

Q: And the “WKYMVm-induced bactericidal activity after antagonist pre-treatment” value [2]?
A: Its value is “significantly inhibited bactericidal activity”.

Q: And the “reversal of the therapeutic effects of WKYMVm by antagonist pre-treatment” value (CLP mice)?
A: The value was “completely reversed”.

Q: For WRYMVm: analog of WKYMVm (WRYMV[dM]), which “therapeutic effect of WKYMVm analogs” value (CLP mice) is on record?
A: The value was “no therapeutic effects”.
